Test [1] concerns K562. Kind of test: Cytotoxicity against human K562 cells. It counts as functional, cell-based.
Test [2] deals with Lewis lung carcinoma cell line. Kind of test: Antitumor activity against mouse LLC cells allografted in mouse assessed as reduction in tumor size at 20 mg/kg, ip qd for 2 weeks measured on day 14 relative to control. In kind it is functional. The conditions noted are these: route intraperitoneal.
For test [3], the system named is Lewis lung carcinoma cell line. Description: Antitumor activity against mouse LLC cells allografted in mouse assessed as reduction in tumor size at 10 mg/kg, ip qd for 2 weeks measured on day 14 relative to control. In kind it is functional. To be noted: route intraperitoneal.
A short description of test [4]: Cytotoxicity against mouse LLC cells. In kind it is functional, cell-based. To be noted: Lewis lung carcinoma.
Test [5] concerns Lewis lung carcinoma cell line. Description: Antitumor activity against mouse LLC cells allografted in mouse assessed as reduction in tumor size at 2 mg/kg, ip qd for 2 weeks measured on day 20 relative to control. To be noted: route intraperitoneal. In kind it is functional.
For test [6], the system named is HepG2. Description: Cytotoxicity against human HepG2 cells. In kind it is functional, cell-based.
Test [7] addresses DNA topoisomerase 2-alpha (Homo sapiens, UniProt P11388). Description: Inhibition of topoisomerase 2.
For test [8], the system named is T47D. Kind of test: Cytotoxicity against human T47D cells. It counts as functional, cell-based.
The target of test [9] is DNA topoisomerase 1 (Homo sapiens, UniProt P11387). Description: Inhibition of topoisomerase 1.
Test [10] can be described thus: Cytotoxicity against mouse Meth-A cells. It counts as functional, cell-based.
Test [11] is described as follows: Cytotoxicity against human Hep3B cells. It counts as functional, cell-based, Hep 3B2.
Test [12] relates to Lewis lung carcinoma cell line. Description: Antitumor activity against mouse LLC cells allografted in mouse assessed as reduction in tumor size at 5 mg/kg, ip qd for 2 weeks measured on day 20 relative to control. In kind it is functional. The conditions noted are these: route intraperitoneal.
Test [13] has as its system HeLa. Kind of test: Cytotoxicity against human HeLa cells. It counts as functional, cell-based. To be noted: Homo sapiens, HeLa.
For test [14], the system named is Lewis lung carcinoma cell line. Description: Antitumor activity against mouse LLC cells allografted in mouse assessed as reduction in tumor size at 2 mg/kg, ip qd for 2 weeks measured on day 14 relative to control. In kind it is functional. The conditions noted are these: route intraperitoneal.
In test [15] the test system is Lewis lung carcinoma cell line. Kind of test: Antitumor activity against mouse LLC cells allografted in mouse assessed as reduction in tumor size at 5 mg/kg, ip qd for 2 weeks measured on day 14 relative to control. In kind it is functional. The conditions noted are these: route intraperitoneal.
Test [16] relates to Huh-7. Description: Cytotoxicity against human HuH7 cells. It counts as functional, cell-based.
The subject of test [17] is CCRF S-180. Kind of test: Cytotoxicity against mouse S180 cells. In kind it is functional, cell-based.
Test [18] has as its system Lewis lung carcinoma cell line. Description: Antitumor activity against mouse LLC cells allografted in mouse assessed as reduction in tumor size at 20 mg/kg, ip qd for 2 weeks measured on day 20 relative to control. It counts as functional. To be noted: route intraperitoneal.
In test [19] the test system is Lewis lung carcinoma cell line. Kind of test: Antitumor activity against mouse LLC cells allografted in mouse assessed as reduction in tumor size at 10 mg/kg, ip qd for 2 weeks measured on day 20 relative to control. It counts as functional. To be noted: route intraperitoneal.

≈ marks a conversion by molar mass, not a printed value.

Chain of DNA topoisomerase 1 (P11387 whole entry): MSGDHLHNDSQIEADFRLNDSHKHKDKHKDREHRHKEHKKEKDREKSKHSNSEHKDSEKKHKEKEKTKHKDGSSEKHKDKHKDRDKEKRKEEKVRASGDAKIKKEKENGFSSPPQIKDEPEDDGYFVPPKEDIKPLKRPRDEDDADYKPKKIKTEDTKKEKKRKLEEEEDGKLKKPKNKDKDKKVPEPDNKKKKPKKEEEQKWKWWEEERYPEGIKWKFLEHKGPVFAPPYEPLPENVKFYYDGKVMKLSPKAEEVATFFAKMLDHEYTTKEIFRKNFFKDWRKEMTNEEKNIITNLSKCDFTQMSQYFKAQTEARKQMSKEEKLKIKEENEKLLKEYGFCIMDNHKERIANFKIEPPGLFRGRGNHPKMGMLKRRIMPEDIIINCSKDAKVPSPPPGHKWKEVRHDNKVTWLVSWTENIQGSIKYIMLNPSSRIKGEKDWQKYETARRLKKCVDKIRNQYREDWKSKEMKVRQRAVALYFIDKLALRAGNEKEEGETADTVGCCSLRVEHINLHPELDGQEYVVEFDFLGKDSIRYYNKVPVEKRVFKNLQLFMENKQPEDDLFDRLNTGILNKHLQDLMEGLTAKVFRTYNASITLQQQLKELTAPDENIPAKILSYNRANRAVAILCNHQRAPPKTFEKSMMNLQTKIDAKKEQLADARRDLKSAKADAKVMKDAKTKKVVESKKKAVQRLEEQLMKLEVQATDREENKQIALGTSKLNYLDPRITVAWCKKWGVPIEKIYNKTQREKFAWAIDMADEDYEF
Chain of DNA topoisomerase 2-alpha (P11388 whole entry): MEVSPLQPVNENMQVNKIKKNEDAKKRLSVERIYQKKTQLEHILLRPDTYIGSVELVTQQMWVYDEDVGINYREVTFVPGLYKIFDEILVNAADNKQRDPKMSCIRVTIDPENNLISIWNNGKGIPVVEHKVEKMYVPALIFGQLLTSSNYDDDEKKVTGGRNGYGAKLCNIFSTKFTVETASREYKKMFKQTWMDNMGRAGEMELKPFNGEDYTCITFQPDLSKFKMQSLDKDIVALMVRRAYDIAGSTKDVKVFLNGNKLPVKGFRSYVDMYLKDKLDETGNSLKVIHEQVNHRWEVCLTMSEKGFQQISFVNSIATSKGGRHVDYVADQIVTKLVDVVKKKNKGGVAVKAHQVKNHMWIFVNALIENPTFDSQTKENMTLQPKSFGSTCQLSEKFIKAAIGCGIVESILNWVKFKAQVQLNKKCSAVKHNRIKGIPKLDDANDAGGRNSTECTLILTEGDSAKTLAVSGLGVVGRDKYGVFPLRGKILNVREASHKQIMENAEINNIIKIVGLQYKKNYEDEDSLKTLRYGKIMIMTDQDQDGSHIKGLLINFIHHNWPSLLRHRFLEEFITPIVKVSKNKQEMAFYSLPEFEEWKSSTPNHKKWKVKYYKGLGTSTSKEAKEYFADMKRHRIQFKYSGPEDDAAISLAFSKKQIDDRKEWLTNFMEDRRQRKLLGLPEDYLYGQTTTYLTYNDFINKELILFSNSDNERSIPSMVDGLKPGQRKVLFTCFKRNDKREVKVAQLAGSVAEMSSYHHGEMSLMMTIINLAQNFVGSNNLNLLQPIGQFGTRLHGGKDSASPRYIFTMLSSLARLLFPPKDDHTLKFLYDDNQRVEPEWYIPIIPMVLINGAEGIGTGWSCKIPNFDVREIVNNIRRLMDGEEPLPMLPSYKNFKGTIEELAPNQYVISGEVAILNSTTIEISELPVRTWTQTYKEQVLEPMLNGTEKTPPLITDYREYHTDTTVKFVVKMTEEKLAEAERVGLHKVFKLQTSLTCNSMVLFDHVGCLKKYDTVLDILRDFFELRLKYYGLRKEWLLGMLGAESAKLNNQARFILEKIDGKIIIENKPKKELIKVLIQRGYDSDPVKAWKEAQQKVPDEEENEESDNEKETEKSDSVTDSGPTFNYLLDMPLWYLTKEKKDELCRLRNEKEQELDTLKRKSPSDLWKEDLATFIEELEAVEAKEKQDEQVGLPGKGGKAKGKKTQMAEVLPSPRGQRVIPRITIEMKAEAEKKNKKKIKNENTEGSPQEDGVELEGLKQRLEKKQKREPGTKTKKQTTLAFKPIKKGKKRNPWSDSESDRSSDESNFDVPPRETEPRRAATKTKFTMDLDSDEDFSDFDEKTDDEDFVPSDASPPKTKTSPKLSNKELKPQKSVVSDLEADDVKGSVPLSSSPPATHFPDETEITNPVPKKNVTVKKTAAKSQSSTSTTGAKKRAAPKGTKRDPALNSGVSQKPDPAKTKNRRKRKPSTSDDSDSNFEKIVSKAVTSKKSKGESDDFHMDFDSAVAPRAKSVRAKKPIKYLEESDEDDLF

Broadly, the IC50 is the midpoint of a concentration-inhibition curve. Read a high IC50 as weaker potency in that assay. Usually T/C stands for the result in the treated group divided by that in the control group, in per cent. As for `C[C@H](CCC=C(CO)CO)[C@H]1CC[C@@]2(C)C3=CC[C@H]4C(C)(C)C(=O)CC[C@]4(C)C3=CC[C@]12C` [GANODERIOL F], the IC50 in test [1] turned out to be 4 µM; in test [4] it was 2 µg/mL (≈ 4.4 µM); in test [6], 17 µM; in test [7], 17 µM; in test [8] it was 3 µg/mL (≈ 6.6 µM); in test [9] it was 106 µM. Further, the IC50 in test [10] turned out to be 10.1 µg/mL (≈ 22.2 µM); in test [11], 25.3 µM; in test [13], 5 µM; in [16], 8.5 µM; in test [17], 7.1 µg/mL (≈ 15.6 µM). For the same compound, the T/C in [2] is on record as 48%; in [3], 54%; in test [5], 45%; in test [12], 79%; in test [14], 38%; in test [15], 64%. In addition, the values for the T/C in test [18] and in test [19] were 54% and 63%, respectively.
